The record followed here is patent US20020197653A1, “System for detecting reporter gene expression” (priority 2001, published 2002).

The subject of the assay is NOS gene under the control of the Gal10 promoter (iNOS). Put plainly: Small-molecule-induced expression of the NOS reporter gene in yeast, detected by bead-bound fluorescein-based NO sensor. The format is cell-based. Conditions: yeast culture in 96-well plates, galactose final concentration 100 mM, TENTAGEL sensor beads, fluorescent microscope with CCD camera. The method, then: The lactone function of the sensor is effectively aminolysed at room temperature over 48 hours. The apparent loading achieved was about 10% (0.03 mmol/g), although it is possible that much lower loading was in fact achieved.
We have also obtained a yeast strain developed by Mansuy et al (Sari et al. Biochemistry 35(22):7204-7213, June 1996; incorporated herein by reference) in which transcription of the NOS gene is under the control of the Gal10 promoter and is therefore inducible (and is referred to as iNOS). We grew the yeast cells in glucose media (SGI medium containing 7 g/L yeast nitrogen base without amino acids, 1 g/L casamino acids, 20 g/L glucose, and 50 mg/L tryptophan, at 30 ° C.) so that expression of the iNOS gene was repressed. The cells were harvested and washed with medium lacking any sugar (7 g/L yeast nitrogen base without amino acids, 1 g/L casamino acids and 50 mg/L tryptophan), were resuspended in the same sugar-free medium, and were distributed into 96-well plates.
The TENTAGEL beads containing sensor were washed with CH2Cl2, THF, DMF, i-PrOH, MeOH, EtOH, and deionized water, and were dried. 10 μl of sensor beads in sugar-free medium were added to wells containing 170 μl of yeast culture (20-30 beads per well). […]

On to `O=C[C@H](O)[C@@H](O)[C@@H](O)[C@H](O)CO` [galactose], for which the “color change of NO sensor beads exposed to induced cells (iNOS reporter expression)” value is listed as “distinct color change (green ->yellow)”.
